Test results taken from ChEMBL document CHEMBL4354792, “Emerging modes-of-action in drug discovery” (Medchemcomm, 2019).

Key:
Ribosome = assay: Inhibition of 80s ribosome in CHOK1 cells assessed as reduction in PL-tagged PCSK9 expression incubated for over night by EFC kit method; format: cell-based; details: Cricetulus griseus, CHO-K1
[1] = Binding affinity to MMTV-PyMT mouse MALAT1 long non-coding RNA by FRET assay

IC50 (Ribosome) [µM] | IC50 [1] [µM] | SMILES
4.8 | – | COc1ccc(CCC(=O)N(c2nccc3ccccc23)[C@@H]2CCCNC2)cc1
– | 1.3 to 2.5 | N=C(NC1CCN(Cc2ccccc2)CC1)c1ccc(-c2ccc(-c3ccc(C(=N)NC4CCN(Cc5ccccc5)CC4)cc3)o2)cc1
